Tests used:
human Gal-1 (hGal-1) = human Gal-1 (hGal-1) (Homo sapiens, UniProt P09382); assay: Competitive binding assay: biotinylated hGal-1 to microplate-adsorbed asialofetuin (ASF); details: Activities on hGal-1; binding to ASF-coated plates, 3 hours at 4° C.; mean values; read-out: Gal-1 IC50
Method in brief: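 Plate-adsorbed asialofetuin is incubated 3 h at 4 °C with biotinylated hGal-1, optionally its all-serine-substituted cysteine variant, plus compound dilutions. ABTS color after 1 h streptavidin-peroxidase (80 ng/mL) at 4 °C reports binding. Reported IC50 is a mean across repeat runs.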

human Gal-3 (hGal-3) = human Gal-3 (hGal-3) (Homo sapiens (Human), UniProt P17931); assay: Competitive binding assay: biotinylated hGal-3 to microplate-adsorbed asialofetuin (ASF); details: Activity on hGal-3; binding to ASF-coated plates, 3 hours at 4° C.; mean values
Sequence of human Gal-3 (hGal-3) (P17931 whole entry): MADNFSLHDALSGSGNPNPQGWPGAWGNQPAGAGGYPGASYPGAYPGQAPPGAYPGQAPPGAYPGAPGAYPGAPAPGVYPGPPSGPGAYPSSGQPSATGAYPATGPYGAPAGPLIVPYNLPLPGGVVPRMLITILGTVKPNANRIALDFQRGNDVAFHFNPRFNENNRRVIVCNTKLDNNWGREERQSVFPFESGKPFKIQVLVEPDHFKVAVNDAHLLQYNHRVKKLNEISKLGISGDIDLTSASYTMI
Method in brief: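 Biotinylated hGal-3 (300-1000 ng/mL) binding to plate-adsorbed asialofetuin, with DMSO-diluted compound added, incubated 3 h at 4 °C. After washing, bound protein detected with streptavidin-peroxidase (80 ng/mL, 1 h, 4 °C) and ABTS substrate, read spectrophotometrically. IC50 given as mean of several measurements.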

Sequence of human Gal-1 (hGal-1) (P09382 2-135 limits assumed): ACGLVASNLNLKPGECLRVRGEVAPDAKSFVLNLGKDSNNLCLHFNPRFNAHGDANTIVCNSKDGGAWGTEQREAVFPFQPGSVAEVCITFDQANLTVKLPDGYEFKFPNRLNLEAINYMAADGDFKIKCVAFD

Row | IC50 (human Gal-1 (hGal-1)) [nM] | IC50 (human Gal-3 (hGal-3)) [nM] | SMILES
1 | 640 | 17 | CCOC(=O)N[C@H]1CC[C@]2(CC1)CC(C[C@H]1O[C@H](CO)[C@H](O)[C@H](n3cc(-c4ccc(C)c(F)c4F)nn3)[C@H]1OC)=NO2 [Example 2.09, ethyl ((5r,8R)-3-(((2R,3R,4S,5R,6R)-4-(4-(2,3-difluoro-4-methylphenyl)-1H-1,2,3-triazol-1-yl)-5-hydroxy-6-(hydroxymethyl)-3-methoxytetrahydro-2H-pyran-2-yl)methyl)-1-oxa-2-azaspiro[4.5]dec-2-en-8-yl)carbamate]
2 | 1600 | 380 | CO[C@@H]1[C@@H](n2cc(-c3cc(F)c(F)c(F)c3)nn2)[C@@H](O)[C@@H](CO)O[C@@H]1CC1=NO[C@]2(CC[C@@H](NCC(F)F)CC2)C1 [Example 2.21, (2R,3R,4S,5R,6R)-6-(((5s,8S)-8-((2,2-difluoroethyl)amino)-1-oxa-2-azaspiro[4.5]dec-2-en-3-yl)methyl)-2-(hydroxymethyl)-5-methoxy-4-(4-(3,4,5-trifluorophenyl)-1H-1,2,3-triazol-1-yl)tetrahydro-2H-pyran-3-ol]
3 | 3600 | 450 | CO[C@@H]1[C@@H](n2cc(-c3cc(F)c(F)c(F)c3)nn2)[C@@H](O)[C@@H](CO)O[C@@H]1CC1=NO[C@]2(CC[C@@H](NC(C)=O)CC2)C1 [Example 2.05, N-((5s,8S)-3-(((2R,3R,4S,5R,6R)-5-hydroxy-6-(hydroxymethyl)-3-methoxy-4-(4-(3,4,5-trifluorophenyl)-1H-1,2,3-triazol-1-yl)tetrahydro-2H-pyran-2-yl)methyl)-1-oxa-2-azaspiro[4.5]dec-2-en-8-yl)acetamide]
4 | 3700 | 37 | Cc1ccc(-c2cn([C@H]3[C@@H](O)[C@@H](CO)O[C@H](CC4=NOC5(CCCCC5)C4)[C@@H]3OCC(=O)O)nn2)c(F)c1F [Example 2.25, 2-(((2R,3R,4S,5R,6R)-2-((1-oxa-2-azaspiro[4.5]dec-2-en-3-yl)methyl)-4-(4-(2,3-difluoro-4-methylphenyl)-1H-1,2,3-triazol-1-yl)-5-hydroxy-6-(hydroxymethyl)tetrahydro-2H-pyran-3-yl)oxy)acetic acid]
5 | 2800 | 280 | CO[C@@H]1[C@@H](n2cc(-c3cc(F)c(F)c(F)c3)nn2)[C@@H](O)[C@@H](CO)O[C@@H]1CC1=NOC2(CCN(C(C)=O)CC2)C1 [Example 2.30, 1-(3-(((2R,3R,4S,5R,6R)-5-hydroxy-6-(hydroxymethyl)-3-methoxy-4-(4-(3,4,5-trifluorophenyl)-1H-1,2,3-triazol-1-yl)tetrahydro-2H-pyran-2-yl)methyl)-1-oxa-2,8-diazaspiro[4.5]dec-2-en-8-yl)ethan-1-one]
6 | 1700 | 140 | CO[C@@H]1[C@@H](n2cc(-c3cc(F)c(F)c(F)c3)nn2)[C@@H](O)[C@@H](CO)O[C@@H]1CC1=NOC2(CCN(C(=O)NC(C)(C)C)CC2)C1 [Example 2.28, N-(tert-butyl)-3-(((2R,3R,4S,5R,6R)-5-hydroxy-6-(hydroxymethyl)-3-methoxy-4-(4-(3,4,5-trifluorophenyl)-1H-1,2,3-triazol-1-yl)tetrahydro-2H-pyran-2-yl)methyl)-1-oxa-2,8-diazaspiro[4.5]dec-2-ene-8-carboxamide]
7 | 1400 | 36 | CO[C@@H]1[C@@H](n2cc(-c3ccc(C)c(F)c3F)nn2)[C@@H](O)[C@@H](CO)O[C@@H]1CN1CC2(CCCCC2)OC1=O [Example 3.02, 3-(((2R,3R,4S,5R,6R)-4-(4-(2,3-difluoro-4-methylphenyl)-1H-1,2,3-triazol-1-yl)-5-hydroxy-6-(hydroxymethyl)-3-methoxytetrahydro-2H-pyran-2-yl)methyl)-1-oxa-3-azaspiro[4.5]decan-2-one]

Second part, the compound before the results:

Row | SMILES | IC50 (human Gal-1 (hGal-1)) [nM] | IC50 (human Gal-3 (hGal-3)) [nM]
8 | CO[C@@H]1[C@@H](n2cc(-c3cc(F)c(F)c(F)c3)nn2)[C@@H](O)[C@@H](CO)O[C@@H]1CC1=NOC2(CCCC2)C1 [Example 1.09, (2R,3R,4S,5R,6R)-6-((1-oxa-2-azaspiro[4.4]non-2-en-3-yl)methyl)-2-(hydroxymethyl)-5-methoxy-4-(4-(3,4,5-trifluorophenyl)-1H-1,2,3-triazol-1-yl)tetrahydro-2H-pyran-3-ol] | 2700 | 950
9 | CO[C@@H]1[C@@H](n2cc(-c3ccc(F)c(F)c3F)nn2)[C@@H](O)[C@@H](CO)O[C@@H]1CC1=NOC2(CCC(C#N)CC2)C1 (stereo partly drawn) [Example 1.50, 3-(((2R,3R,4S,5R,6R)-5-hydroxy-6-(hydroxymethyl)-3-methoxy-4-(4-(2,3,4-trifluorophenyl)-1H-1,2,3-triazol-1-yl)tetrahydro-2H-pyran-2-yl)methyl)-1-oxa-2-azaspiro[4.5]dec-2-ene-8-carbonitrile] | 570 | 160
10 | CO[C@@H]1[C@@H](n2cc(-c3ccc(F)c(F)c3F)nn2)[C@@H](O)[C@@H](CO)O[C@@H]1CC1=NO[C@]2(CC[C@H](C#N)CC2)C1 [Example 1.59, (5r,8R)-3-(((2R,3R,4S,5R,6R)-5-hydroxy-6-(hydroxymethyl)-3-methoxy-4-(4-(2,3,4-trifluorophenyl)-1H-1,2,3-triazol-1-yl)tetrahydro-2H-pyran-2-yl)methyl)-1-oxa-2-azaspiro[4.5]dec-2-ene-8-carbonitrile] | 220 | 130
11 | CO[C@@H]1[C@@H](n2cc(-c3ccc(C)c(F)c3F)nn2)[C@@H](O)[C@@H](CO)O[C@@H]1CC1=NOC2(C1)CC1CCC2C1 (stereo partly drawn) [Example 1.81, (2R,3R,4S,5R,6R)-6-((4′H-spiro[bicyclo[2.2.1]heptane-2,5′-isoxazol]-3′-yl)methyl)-4-(4-(2,3-difluoro-4-methylphenyl)-1H-1,2,3-triazol-1-yl)-2-(hydroxymethyl)-5-methoxytetrahydro-2H-pyran-3-ol] | 2370 | 60
12 | CO[C@@H]1[C@@H](n2cc(-c3ccc(C)c(F)c3F)nn2)[C@@H](O)[C@@H](CO)O[C@@H]1CC1=NOC2(CCC(C#N)CC2)C1 (stereo partly drawn) [Example 1.51, 3-(((2R,3R,4S,5R,6R)-4-(4-(2,3-difluoro-4-methylphenyl)-1H-1,2,3-triazol-1-yl)-5-hydroxy-6-(hydroxymethyl)-3-methoxytetrahydro-2H-pyran-2-yl)methyl)-1-oxa-2-azaspiro[4.5]dec-2-ene-8-carbonitrile] | 1900 | 100
13 | CO[C@@H]1[C@@H](n2cc(-c3cc(F)c(F)c(F)c3)nn2)[C@@H](O)[C@@H](CO)O[C@@H]1CC1=NO[C@]2(CC[C@@H](C)CC2)C1 [Example 1.34, (2R,3R,4S,5R,6R)-2-(hydroxymethyl)-5-methoxy-6-(((5s,8S)-8-methyl-1-oxa-2-azaspiro[4.5]dec-2-en-3-yl)methyl)-4-(4-(3,4,5-trifluorophenyl)-1H-1,2,3-triazol-1-yl)tetrahydro-2H-pyran-3-ol] | 2500 | 520
14 | CO[C@@H]1[C@@H](n2cc(-c3cc(F)c(F)c(F)c3)nn2)[C@@H](O)[C@@H](CO)O[C@@H]1CC1=NO[C@]2(CC[C@H](C)CC2)C1 [Example 1.33, (2R,3R,4S,5R,6R)-2-(hydroxymethyl)-5-methoxy-6-(((5r,8R)-8-methyl-1-oxa-2-azaspiro[4.5]dec-2-en-3-yl)methyl)-4-(4-(3,4,5-trifluorophenyl)-1H-1,2,3-triazol-1-yl)tetrahydro-2H-pyran-3-ol] | 3700 | 330
15 | CO[C@@H]1[C@@H](n2cc(-c3ccc(C)c(F)c3F)nn2)[C@@H](O)[C@@H](CO)O[C@@H]1CC1=NO[C@]2(CC[C@@H](NC(=O)OC(C)(C)C)CC2)C1 [Example 1.44, tert-butyl ((5s,8S)-3-(((2R,3R,4S,5R,6R)-4-(4-(2,3-difluoro-4-methylphenyl)-1H-1,2,3-triazol-1-yl)-5-hydroxy-6-(hydroxymethyl)-3-methoxytetrahydro-2H-pyran-2-yl)methyl)-1-oxa-2-azaspiro[4.5]dec-2-en-8-yl)carbamate] | 4900 | 100
16 | CO[C@@H]1[C@@H](n2cc(-c3ccc(Cl)c(F)c3F)nn2)[C@@H](O)[C@@H](CO)O[C@@H]1CC1=NO[C@]2(CC[C@H](NC(=O)OC(C)(C)C)CC2)C1 [Example 1.45, tert-butyl ((5r,8R)-3-(((2R,3R,4S,5R,6R)-4-(4-(4-chloro-2,3-difluorophenyl)-1H-1,2,3-triazol-1-yl)-5-hydroxy-6-(hydroxymethyl)-3-methoxytetrahydro-2H-pyran-2-yl)methyl)-1-oxa-2-azaspiro[4.5]dec-2-en-8-yl)carbamate] | 800 | 10
17 | CO[C@@H]1[C@@H](n2cc(-c3ccc(C)c(F)c3F)nn2)[C@@H](O)[C@@H](CO)O[C@@H]1CC1=NO[C@]2(CC[C@H](NC(=O)OC(C)(C)C)CC2)C1 [Example 1.43, tert-butyl ((5r,8R)-3-(((2R,3R,4S,5R,6R)-4-(4-(2,3-difluoro-4-methylphenyl)-1H-1,2,3-triazol-1-yl)-5-hydroxy-6-(hydroxymethyl)-3-methoxytetrahydro-2H-pyran-2-yl)methyl)-1-oxa-2-azaspiro[4.5]dec-2-en-8-yl)carbamate] | 1240 | 15
18 | CO[C@@H]1[C@@H](n2cc(-c3ccc(C)c(F)c3F)nn2)[C@@H](O)[C@@H](CO)O[C@@H]1CC1=NOC2(CCOCC2)C1 [Example 1.36, (2R,3R,4S,5R,6R)-6-((1,8-dioxa-2-azaspiro[4.5]dec-2-en-3-yl)methyl)-4-(4-(2,3-difluoro-4-methylphenyl)-1H-1,2,3-triazol-1-yl)-2-(hydroxymethyl)-5-methoxytetrahydro-2H-pyran-3-ol] | 3800 | 64

From US20230295182A1, “SPIRO DERIVATIVES OF ALPHA-D-GALACTOPYRANOSIDES” (Idorsia Pharmaceuticals Ltd, priority 2020, published 2023)
